Pest or weed control data for eight compounds are collected here from patent publication US20230017045A1, “PYRIDINE AND PYRIMIDINE CARBOXYLATE HERBICIDES AND METHODS OF USE THEREOF” (Dow AgroSciences LLC, priority 2017, published 2023).

Read-outs that look alike come from different tables or passages of the source.

The assay has as its system test plant species. The assay can be described thus: Post-emergent herbicidal activity test (greenhouse, foliar spray, visual growth reduction). It counts as in vivo. The conditions noted are these: post-emergence, 336 h, 140 g ai/ha, 14 days after application. Put shortly:
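Seedlings were raised 7-21 d in a greenhouse under a 15 h photoperiod until the first or second true leaf. Each compound, dissolved in acetone:DMSO 97:3 and diluted into a surfactant-containing spray mixture, was then applied at 187 L/ha. Plants were subirrigated, and growth reduction was scored visually at 14 d.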

Setting [1] is: ALOMY: blackgrass (Alopecurus myosuroides), read-out: Visual Growth Reduction (%) 14 Days After Application, ALOMY.
[2] abbreviates: AMARE: redroot pigweed (Amaranthus retroflexus), read-out: Visual Growth Reduction (%) 14 Days After Application, AMARE.
Where [3] appears, read: AVEFA: wild oat (Avena fatua), read-out: Visual Growth Reduction (%) 14 Days After Application, AVEFA.
Setting [4] is: CHEAL: lambsquarters (Chenopodium album), read-out: Visual Growth Reduction (%) 14 Days After Application, CHEAL.
[5] abbreviates: CIRAR: canada thistle (Cirsium arvense), read-out: Visual Growth Reduction (%) 14 Days After Application, CIRAR.
The mark [6] stands for this setting: CYPES: yellow nutsedge (Cyperus esculentus), read-out: Visual Growth Reduction (%) 14 Days After Application, CYPES.
[7] abbreviates: DIGSA: crabgrass (Digitaria sanguinalis), read-out: Visual Growth Reduction (%) 14 Days After Application, DIGSA.
[8] abbreviates: ECHCG: barnyardgrass (Echinochloa crus-galli), read-out: Visual Growth Reduction (%) 14 Days After Application, ECHCG.
The mark [9] stands for this setting: IPOHE: ivy-leaf morning glory (Ipomoea hederacea), read-out: Visual Growth Reduction (%) 14 Days After Application, IPOHE.
Where [10] appears, read: KCHSC: kochia (Bassia scoparia), read-out: Visual Growth Reduction (%) 14 Days After Application, KCHSC.
Setting [11] is: ORYSA: rice (Oryza sativa), read-out: Visual Growth Reduction (%) 14 Days After Application, ORYSA.
Setting [12] is: SETFA: giant foxtail (Setaria faberi), read-out: Visual Growth Reduction (%) 14 Days After Application, SETFA.
The mark [13] stands for this setting: SORVU: grain sorghum (Sorghum vulgare), read-out: Visual Growth Reduction (%) 14 Days After Application, SORVU.
The mark [14] stands for this setting: STEME: common chickweed (Stellaria media), read-out: Visual Growth Reduction (%) 14 Days After Application, STEME.
[15] abbreviates: TRZAS: wheat, spring (Triticum aestivum), read-out: Visual Growth Reduction (%) 14 Days After Application, TRZAS.

Take `COC(=O)c1nc(-c2ccc(SC(F)(F)F)cc2)c(F)cc1Cl` [F91, Methyl 3-chloro-5-fluoro-6-(4-((trifluoromethyl)thio)phenyl) picolinate]: the pest or weed control at 140 g/ha lay within 0 to 29% under setting [1]; 0 to 29% under setting [2]; 0 to 29% under setting [3]; 0 to 29% under setting [4]; 30 to 44% under setting [5]; 0 to 29% under setting [6]. Also, the pest or weed control at 140 g/ha runs as follows: under setting [7], 0 to 29%; under setting [8], 0 to 29%; under setting [9], 30 to 44%; under setting [10], 0 to 29%; under setting [11], 0 to 29%; under setting [12], 0 to 29%. For the same compound, the pest or weed control at 140 g/ha fell in the range of 0 to 29% under setting [13], 0 to 29% under setting [14] and 0 to 29% under setting [15].
On to `COC(=O)c1nc(-c2ccc(C(F)(F)F)nc2)c(F)cc1Cl` [F92, methyl 5-chloro-3-fluoro-6′-(trifluoromethyl)-[2,3′-bipyridine]-6-carboxylate], for which the pest or weed control at 140 g/ha lay in the range of 0 to 29% under setting [1]; 0 to 29% under setting [2]; 0 to 29% under setting [3]; 0 to 29% under setting [4]; 0 to 29% under setting [5]; 0 to 29% under setting [6]. Also, the pest or weed control at 140 g/ha fell in the range of 30 to 44% under setting [7]; 0 to 29% under setting [8]; 30 to 44% under setting [9]; 0 to 29% under setting [10]; 0 to 29% under setting [11]; 0 to 29% under setting [12]. Also, the pest or weed control at 140 g/ha under setting [13] fell in the range of 0 to 29%, the pest or weed control at 140 g/ha under setting [14] lay within 0 to 29% and the pest or weed control at 140 g/ha under setting [15] was 0 to 29%.
For `COC(=O)c1nc(-c2ccc(C(F)(F)F)cc2)c(F)cc1Cl` [F93, Methyl 3-chloro-5-fluoro-6-(4-(trifluoromethyl)phenyl)picolinate], the pest or weed control at 140 g/ha reads like this: under setting [1], 0 to 29%; under setting [2], 0 to 29%; under setting [3], 0 to 29%; under setting [4], 45 to 59%; under setting [5], 30 to 44%; under setting [6], 0 to 29%. Also, the pest or weed control at 140 g/ha is 60 to 74% under setting [7]; 0 to 29% under setting [8]; 60 to 74% under setting [9]; 0 to 29% under setting [10]; 0 to 29% under setting [11]; 0 to 29% under setting [12]. Further, the pest or weed control at 140 g/ha reads like this: under setting [13], 0 to 29%; under setting [14], 0 to 29%; under setting [15], 0 to 29%.
For the compound `O=C(O)c1nc(-c2ccc(SC(F)(F)F)cc2)ccc1Cl` [F94, 3-Chloro-6-(4-((trifluoromethyl)thio)phenyl)picolinic acid], the pest or weed control at 140 g/ha under setting [1] is 0 to 29%; the pest or weed control at 140 g/ha under setting [2] is 0 to 29%; the pest or weed control at 140 g/ha under setting [3] fell in the range of 0 to 29%; the pest or weed control at 140 g/ha under setting [4] fell in the range of 0 to 29%; the pest or weed control at 140 g/ha under setting [5] lay in the range of 30 to 44%; the pest or weed control at 140 g/ha under setting [6] was in the range of 0 to 29%. The pest or weed control at 140 g/ha is, setting by setting: under setting [7], 0 to 29%; under setting [8], 0 to 29%; under setting [9], 60 to 74%; under setting [10], 0 to 29%; under setting [11], 0 to 29%; under setting [12], 0 to 29%. The pest or weed control at 140 g/ha reads like this: under setting [13], 0 to 29%; under setting [14], 0 to 29%; under setting [15], 0 to 29%.
For the compound `O=C(O)c1nc(-c2ccc(C(F)(F)F)nc2)ccc1Cl` [F95, 5-Chloro-6′-(trifluoromethyl)-[2,3′-bipyridine]-6-carboxylic acid], the pest or weed control at 140 g/ha was 0 to 29% under setting [1]; 0 to 29% under setting [2]; 0 to 29% under setting [3]; 0 to 29% under setting [4]; 0 to 29% under setting [5]; 0 to 29% under setting [6]. The pest or weed control at 140 g/ha by setting is: under setting [7], 0 to 29%; under setting [8], 0 to 29%; under setting [9], 45 to 59%; under setting [10], 0 to 29%; under setting [11], 0 to 29%; under setting [12], 0 to 29%. In addition, the pest or weed control at 140 g/ha under setting [13] was 0 to 29%, the pest or weed control at 140 g/ha under setting [14] lay in the range of 0 to 29% and the pest or weed control at 140 g/ha under setting [15] fell in the range of 0 to 29%.
In the case of `O=C(O)c1nc(-c2ccc(C(F)(F)F)cc2)c(Cl)cc1Cl` [F96, 3,5-Dichloro-6-(4-(trifluoromethyl)phenyl)picolinic acid], the pest or weed control at 140 g/ha was in the range of 0 to 29% under setting [1]; 30 to 44% under setting [2]; 0 to 29% under setting [3]; 60 to 74% under setting [4]; 30 to 44% under setting [5]; 0 to 29% under setting [6]. In addition, the pest or weed control at 140 g/ha is, setting by setting: under setting [7], 0 to 29%; under setting [8], 0 to 29%; under setting [9], 75 to 84%; under setting [10], 0 to 29%; under setting [11], 0 to 29%; under setting [12], 45 to 59%. Besides, the pest or weed control at 140 g/ha by setting is: under setting [13], 60 to 74%; under setting [14], 0 to 29%; under setting [15], 0 to 29%.
Consider `COC(=O)c1nc(-c2ccc(SC(F)(F)F)cc2)ccc1Cl` [F97, Methyl 3-chloro-6-(4-((trifluoromethyl)thio)phenyl)picolinate], for which the pest or weed control at 140 g/ha reads like this: under setting [1], 0 to 29%; under setting [2], 0 to 29%; under setting [3], 0 to 29%; under setting [4], 0 to 29%; under setting [5], 0 to 29%; under setting [6], 0 to 29%. Further, the pest or weed control at 140 g/ha by setting is: under setting [7], 0 to 29%; under setting [8], 0 to 29%; under setting [9], 0 to 29%; under setting [10], 0 to 29%; under setting [11], 0 to 29%; under setting [12], 0 to 29%. The pest or weed control at 140 g/ha is, setting by setting: under setting [13], 0 to 29%; under setting [14], 0 to 29%; under setting [15], 0 to 29%.
In the case of `COC(=O)c1nc(-c2ccc(SC(F)(F)F)cc2)c(Cl)cc1Cl` [F98, Methyl 3,5-dichloro-6-(4-((trifluoromethyl)thio)phenyl)picolinate], the pest or weed control at 140 g/ha reads like this: under setting [1], 0 to 29%; under setting [2], 0 to 29%; under setting [3], 0 to 29%; under setting [4], 0 to 29%; under setting [5], 0 to 29%; under setting [6], 0 to 29%. Besides, the pest or weed control at 140 g/ha fell in the range of 0 to 29% under setting [7]; 0 to 29% under setting [8]; 0 to 29% under setting [9]; 0 to 29% under setting [10]; 0 to 29% under setting [11]; 0 to 29% under setting [12]. Moreover, the pest or weed control at 140 g/ha under setting [13] lay in the range of 0 to 29%, the pest or weed control at 140 g/ha under setting [14] was 0 to 29% and the pest or weed control at 140 g/ha under setting [15] was in the range of 0 to 29%.
